The results in this text go back to patent US10792340B2, “Antibacterial composition for combating carbapenem-resistant gram-negative bacteria comprising ADK protein as active ingredient” (KONKUK UNIVERSITY GLOCAL INDUSTRY-ACADEMIC COLLABORATION …, priority 2015, dated 2020).

Holding throughout (type): cell-based
Assay [1] concerns Acinetobacter baumannii, which is a normal strain. Description: Rezazurin assay, MIC and MBC, normal strain (control).
The test system of assay [2] is carbapenem-resistant Acinetobacter baumannii (KUMC.2014.91). Put plainly: Rezazurin assay, MIC and MBC, carbapenem-resistant strain KUMC.2014.91.
Assay [3] has as its system carbapenem-resistant Acinetobacter baumannii (KUMC.2014.90). Put plainly: Rezazurin assay, MIC and MBC, carbapenem-resistant strain KUMC.2014.90.

Where only a bound is given, the exact number is not on record here.

As to `CC1(C)S[C@@H]2[C@H](NC(=O)[C@H](N)c3ccccc3)C(=O)N2[C@H]1C(=O)O` [Ampicillin], the “growth inhibition (in words)” value in assay [1] is “inhibited the growth”; in assay [2] (carbapenem-resistant KUMC.2014.91 strain), “unable to inhibit the growth”; in assay [3] (carbapenem-resistant KUMC.2014.90 strain), “unable to inhibit the growth”. In addition, the MIC50 in assay [1] (50% inhibitory concentration, testing range 0.45~500) is less than 31.3 µg/mL. In addition, the MIC80 in assay [1] (80% inhibitory concentration, testing range 0.45~500) is less than 62.5 µg/mL. For the same compound, the MBC in assay [1] (testing range 0.45~500) was less than 62.5 µg/mL; in assay [2] (Acinetobacter baumannii (KUMC.2014.91), testing range 0.45~500), “No effect”; in assay [3] (Acinetobacter baumannii (KUMC.2014.90), testing range 0.45~500) it was “No effect”. Besides, the “MIC 50%” value is reported as “No effect” in assay [2] (Acinetobacter baumannii (KUMC.2014.91), 50% inhibitory concentration, testing range 0.45~500) and “No effect” in assay [3] (Acinetobacter baumannii (KUMC.2014.90), 50% inhibitory concentration, testing range 0.45~500). The “MIC 80%” value in assay [2] (Acinetobacter baumannii (KUMC.2014.91), 80% inhibitory concentration, testing range 0.45~500) was “No effect”; in assay [3] (Acinetobacter baumannii (KUMC.2014.90), 80% inhibitory concentration, testing range 0.45~500) it was “No effect”.
